Laboratory results published in EPA's CvTdb concentration-time database.

Assays:
[1] = test system: Rat; test: concentration in plasma after dosing; settings: 7 min; dosed: 2-Methyltetrahydrofuran; 40 mg/kg; iv; Male; Harlan Sprague Dawley
[2] = test system: Rat; test: concentration in plasma after dosing; settings: 1.5 h; dosed: 2-Methyltetrahydrofuran; 40 mg/kg; iv; Male; Harlan Sprague Dawley
[3] = test system: Rat; test: concentration in brain after dosing; settings: 2 h; dosed: 2-Methyltetrahydrofuran; 40 mg/kg; iv; Female; Harlan Sprague Dawley
[4] = test system: Rat; test: concentration in plasma after dosing; settings: 0.5 h; dosed: 2-Methyltetrahydrofuran; 40 mg/kg; iv; Female; Harlan Sprague Dawley
[5] = test system: Rat; test: concentration in brain after dosing; settings: 7 min; dosed: 2-Methyltetrahydrofuran; 40 mg/kg; iv; Male; Harlan Sprague Dawley
[6] = test system: Rat; test: concentration in brain after dosing; settings: 7 min; dosed: 2-Methyltetrahydrofuran; 40 mg/kg; iv; Male; Harlan Sprague Dawley; remark: listed apart in the source
[7] = test system: Rat; test: concentration in brain after dosing; settings: 4 h; dosed: 2-Methyltetrahydrofuran; 40 mg/kg; iv; Female; Harlan Sprague Dawley
[8] = test system: Rat; test: concentration in plasma after dosing; settings: 0.5 h; dosed: Perfluorohexanoic Acid; 40 mg/kg; iv; Male; F344
[9] = test system: Rat; test: concentration in plasma after dosing; settings: 0.75 h; dosed: Perfluorohexanoic Acid; 40 mg/kg; iv; Female; Harlan Sprague-Dawley
[10] = test system: Rat; test: concentration in kidney after dosing; settings: 6 h; dosed: Perfluorohexanoic Acid; 80 mg/kg; oral; Female; Harlan Sprague Dawley
[11] = test system: Rat; test: concentration in plasma after dosing; settings: 0.25 h; dosed: Perfluorohexanoic Acid; 40 mg/kg; iv; Male; F344
[12] = test system: Rat; test: concentration in plasma after dosing; settings: 5 min; dosed: Perfluorohexanoic Acid; 40 mg/kg; iv; Male; F344
[13] = test system: Rat; test: concentration in plasma after dosing; settings: dosed: Perfluorohexanoic Acid, 40 mg/kg, iv, Male, F344
[14] = test system: Rat; test: concentration in plasma after dosing; settings: 2 h; dosed: Gemfibrozil; 100 mg/kg; oral; Male; Sprague-Dawley
[15] = test system: Rat; test: concentration in plasma after dosing; settings: 2 h; dosed: Gemfibrozil; 100 mg/kg; oral; Male; Sprague-Dawley; remark: listed apart in the source
[16] = test system: Rat; test: concentration in plasma after dosing; settings: 0.5 h; dosed: Gemfibrozil; 4.29 mg/kg; oral; Male; Sprague-Dawley
[17] = test system: Rat; test: concentration in plasma after dosing; settings: 6 h; dosed: Gemfibrozil; 100 mg/kg; oral; Male; Sprague-Dawley
[18] = test system: Rat; test: concentration in plasma after dosing; settings: 10 min; dosed: Gemfibrozil; 100 mg/kg; oral; Male; Sprague-Dawley
[19] = test system: Rat; test: concentration in plasma after dosing; settings: 24 h; dosed: Gemfibrozil; 100 mg/kg; oral; Male; Sprague-Dawley
[20] = test system: Rat; test: concentration in plasma after dosing; settings: 0.25 h; dosed: Gemfibrozil; 100 mg/kg; oral; Male; Sprague-Dawley
[21] = test system: Rat; test: concentration in plasma after dosing; settings: 18 h; dosed: Gemfibrozil; 50 mg/kg; oral; Male; Sprague-Dawley
[22] = test system: Rat; test: concentration in kidney after dosing; settings: 864 h; dosed: Perfluorooctane Sulfonate; 2 mg/kg; oral; Female; Harlan Sprague Dawley
[23] = test system: Rat; test: concentration in liver after dosing; settings: 24 h; dosed: Perfluorooctane Sulfonate; 2 mg/kg; oral; Female; Harlan Sprague Dawley
[24] = test system: Rat; test: concentration in kidney after dosing; settings: 3360 h; dosed: Perfluorooctane Sulfonate; 2 mg/kg; oral; Female; Harlan Sprague Dawley
[25] = test system: Rat; test: concentration in liver after dosing; settings: 3360 h; dosed: Perfluorooctane Sulfonate; 2 mg/kg; oral; Female; Harlan Sprague Dawley
[26] = test system: Rat; test: concentration in liver after dosing; settings: 3360 h; dosed: Perfluorooctane Sulfonate; 20 mg/kg; oral; Male; Harlan Sprague Dawley
[27] = test system: Rat; test: concentration in plasma after dosing; settings: 24 h; dosed: Perfluorooctane Sulfonate; 2 mg/kg; oral; Female; Harlan Sprague Dawley
[28] = test system: Rat; test: concentration in brain after dosing; settings: 3360 h; dosed: Perfluorooctane Sulfonate; 20 mg/kg; oral; Male; Harlan Sprague Dawley
[29] = test system: Rat; test: concentration in plasma after dosing; settings: 3360 h; dosed: Perfluorooctane Sulfonate; 2 mg/kg; oral; Female; Harlan Sprague Dawley
[30] = test system: Rat; test: concentration in brain after dosing; settings: 24 h; dosed: Perfluorooctane Sulfonate; 2 mg/kg; oral; Female; Harlan Sprague Dawley
[31] = test system: Rat; test: concentration in brain after dosing; settings: 1848 h; dosed: Perfluorooctane Sulfonate; 20 mg/kg; oral; Male; Harlan Sprague Dawley
[32] = test system: Rat; test: concentration in brain after dosing; settings: 864 h; dosed: Perfluorooctane Sulfonate; 20 mg/kg; oral; Female; F344
[33] = test system: Rat; test: concentration in liver after dosing; settings: 6 h; dosed: Perfluorooctane Sulfonate; 20 mg/kg; oral; Male; Harlan Sprague Dawley
[34] = test system: Rat; test: concentration in liver after dosing; settings: 1848 h; dosed: Perfluorooctane Sulfonate; 2 mg/kg; oral; Female; Harlan Sprague Dawley
[35] = test system: Rat; test: concentration in brain after dosing; settings: 0.5 h; dosed: Fluorotelomer alcohol 8+2; 80 mg/kg; oral; Female; Harlan Sprague Dawley
[36] = test system: Rat; test: concentration in plasma after dosing; settings: dosed: 678-39-7, 12 mg/kg, iv, Male, F344
[37] = test system: Rat; test: concentration in plasma after dosing; settings: dosed: 678-39-7, 12 mg/kg, iv, Male, F344; remark: listed apart in the source
[38] = test system: Rat; test: concentration in plasma after dosing; settings: dosed: 678-39-7, 40 mg/kg, iv, Female, Harlan Sprague-Dawley
[39] = test system: Rat; test: concentration in plasma after dosing; settings: dosed: Fluorotelomer alcohol 8+2, 12 mg/kg, oral, Male, Harlan Sprague Dawley
[40] = test system: Rat; test: concentration in liver after dosing; settings: 1 h; dosed: Fluorotelomer alcohol 8+2; 24 mg/kg; oral; Male; Harlan Sprague Dawley
[41] = test system: Rat; test: concentration in kidney after dosing; settings: 3 h; dosed: Fluorotelomer alcohol 8+2; 24 mg/kg; oral; Male; Harlan Sprague Dawley

CC1CCCO1 (stereo unspecified) [2-Methyltetrahydrofuran]
Settings	concentration in brain [ng/mL]	concentration in plasma [ng/mL]
[1]	–	57300
[2]	–	14500
[3]	3530	–
[4]	–	28500
[5]	31000	–
[6]	23700	–
[7]	111	–

O=C(O)C(F)(F)C(F)(F)C(F)(F)C(F)(F)C(F)(F)F [Perfluorohexanoic Acid]
Settings	concentration in kidney [ng/g]	concentration in plasma [ng/mL]
[8]	–	8680
[9]	–	1570
[10]	9420	–
[11]	–	14700
[12]	–	540

[13]
Settings	concentration in plasma [ng/mL]
3 h	34.9
5 min	18500

Cc1ccc(C)c(OCCCC(C)(C)C(=O)O)c1 [Gemfibrozil]
Settings	concentration in plasma [ng/mL]
[14]	5120
[15]	10700
[16]	424
[17]	13800
[18]	130000
[19]	761
[20]	35700
[21]	1100

O=S(=O)([O-])C(F)(F)C(F)(F)C(F)(F)C(F)(F)C(F)(F)C(F)(F)C(F)(F)C(F)(F)F [Perfluorooctane Sulfonate]
Settings	concentration in brain [ng/g]	concentration in kidney [ng/g]	concentration in liver [ng/g]	concentration in plasma [ng/mL]
[22]	–	1390	–	–
[23]	–	–	30300	–
[24]	–	651	–	–
[25]	–	–	3090	–
[26]	–	–	29100	–
[27]	–	–	–	5650
[28]	890	–	–	–
[29]	–	–	–	144
[30]	851	–	–	–
[31]	660	–	–	–
[32]	2700	–	–	–
[33]	–	–	164000	–
[34]	–	–	5940	–

O=C(O)CCC(F)(F)C(F)(F)C(F)(F)C(F)(F)C(F)(F)C(F)(F)C(F)(F)F [Fluorotelomer acid 7+3]
Settings	concentration in brain [ng/g]	concentration in kidney [ng/g]	concentration in liver [ng/g]
[35]	152	–	–
[40]	–	–	693
[41]	–	1320	–

Settings	concentration in plasma [ng/mL]
[36], 0.25 h	37
[36], 24 h	183
[37], 0.5 h	127
[37], 9 h	159
[38], 1 h	1680
[38], 24 h	315
[39], 48 h	169
[39], 192 h	26.3
